Key:
[1] = test system: PDE4; assay: Inhibition of the PDE4 activity (cytosol from human neutrophils, [3H]cAMP hydrolysis); format: biochemical; set-up: unit not given here; conditions: 0.5 μM cAMP, Motapizone 1 μM to suppress PDE3
Procedure: Method for Measuring Inhibition of PDE4 Activity
PDE4 activity was determined as described by Thompson et al. (Adv Cycl Nucl Res 10:69-92, 1979) with some modifications (Bauer and Schwabe, Naunyn-Schmiedeberg's Arch Pharmacol 311:193-198, 1980). At a final assay volume of 200 μl (96well microtiter plates) the assay mixture contained 20 mM Tris (pH 7.4), 5 mM MgCl2, 0.5 μM cAMP, [^3H]cAMP (about 30,000 cpm/assay), the test compound and an aliquot of cytosol from human neutrophilis which mainly contains PDE4 activity as described by Schudt et al. (Naunyn-Schmledeberg's Arch Pharmacol 344:682-690, 1991); the PDE3-specific inhibitor Motapizone (1 μM) was included to suppress PDE3 activity originating from contaminating platelets. Serial dilutions of the compounds were prepared in DMSO and further diluted 1:100 (v/v) in the assays to obtain the desired final concentrations of the inhibitors at a DMSO concentration of 1% (v/v) which by itself only slightly affected PDE4 activity.
After preincubation for 5 min at 37° C., the reaction was started by the addition of substrate (cAMP) and the assays were incubated for further 15 min at 37° C. 50 μl of 0.2 N HCl was added to stop the reaction and the assays were left on ice for about 10 min. Following incubation with 25 μg 5′-nucleotidase (Crotalus atrox snake venom) for 10 min at 37° C., the assays were loaded on QAE Sephadex A-25 (1 ml bed volume). The columns were eluted with 2 ml of 30 mM ammonium formulate (pH 6.0) and the […] for radioactivity. Results were corrected for blank values (measured in the presence of denatured protein) which were below 5% of total radioactivity. […] The IC50 -values for the compounds according to the invention for the inhibition of the PDE4 activity were determined from the concentration-inhibition curves by nonlinear-regression.

SMILES: COc1cc2c(cc1OC)[C@H]1CCCC[C@H]1N=C2c1ccc(C(C)=NO)cc1 [Compound 1, 1-[4-((4aR,10bR)-8,9-Dimethoxy-1,2,3,4,4a,10b-hexahydrophenanthridin-6-yl}-phenyl]-ethanone oxime]
- melting point: 189 to 192 °C
- −log IC50, Inhibition of the PDE4 activity [1]: 9.43

SMILES: COc1cc2c(cc1OC)C1CCCCC1N=C2c1ccc(C(=NO)c2ccccc2)cc1 [Compound 2, 1-[4-((4aR,10bR)-8,9-Dimethoxy-1,2,3,4a,10b-hexahydrophenanthridin-6-yl}phenyl]-1-phenyl-methanone oxime]
- −log IC50, Inhibition of the PDE4 activity [1]: 9.04

SMILES: COc1cc2c(cc1OC)[C@H]1CCCC[C@H]1N=C2c1ccc(C(C)=NOCc2ccccc2)cc1 [Compound 4, 1-[4-((4aR,10bR)-8,9-Dimethoxy-1,2,3,4,4a,10b-hexahydrophenanthridin-6-yl}-phenyl]-ethanone O-benzyloxime]
- −log IC50, Inhibition of the PDE4 activity [1]: 8.20

SMILES: COc1cc2c(cc1OC)[C@H]1CCCC[C@H]1N=C2c1ccc(C(C)=NOCc2ccc([N+](=O)[O-])cc2)cc1 [Compound 5, 1-[4-((4aR,10bR)-8,9-Dimethoxy-1,2,3,4,4a,10b-hexahydrophenanthridin-6-yl}-phenyl]-ethanone O-(4-nitrobenzyl)-oxime]
- −log IC50, Inhibition of the PDE4 activity [1]: 8.41

SMILES: CCON=C(C)c1ccc(C2=N[C@@H]3CCCC[C@@H]3c3cc(OC)c(OC)cc32)cc1 [Compound 6, 1-[4-((4aR,10bR)-8,9-Dimethoxy-1,2,3,4,4a,10b-hexahydrophenanthridin-6-yl}-phenyl]ethanone O-ethyloxime]
- −log IC50, Inhibition of the PDE4 activity [1]: 8.08

SMILES: COc1cc2c(cc1OC)C1CCCCC1N=C2c1ccc(C(C)=NOc2ccccc2)cc1 [Compound 7, 1-[4-((4aR,10bR)-8,9Dimethoxy-1,2,3,4,a,10b-hexahydrophenanthridin-6-yl}-phenyl]ethanone O-phenyloxime]
- −log IC50, Inhibition of the PDE4 activity [1]: 8.26

SMILES: COc1cc2c(cc1OC)[C@H]1CCCC[C@H]1N=C2c1ccc(C(C)=NOCC(C)C)cc1 [Compound 8, 1-[4-((4aR,10bR)-8,9-Dimethoxy-1,2,3,4,4a,10b-hexahydrophenanthridin-6yl)-phenyl]-ethanone O-isobutyloxime]
- −log IC50, Inhibition of the PDE4 activity [1]: 8.01

SMILES: COc1ccccc1NC(=O)CON=C(C)c1ccc(C2=N[C@@H]3CCCC[C@@H]3c3cc(OC)c(OC)cc32)cc1 [Compound 11, 2-{1-[4-((4aR,10bR)-8,9-Dimethoxy-1,2,3,4,4a,10b-hexahydrophenanthridin-6-yl)-phenyl]ethylideneaminooxy}-N-(2-methoxyphenyl)-acetamide]
- −log IC50, Inhibition of the PDE4 activity [1]: 8.87

SMILES: COc1cc2c(cc1OC)C1CCCCC1N=C2c1ccc(C(C)=NOCC(=O)NCc2ccc(Cl)cc2)cc1 [Compound 12, N-(4-Chlorobenzyl)-2-{1-[4-((4aR,10bR)-8,9-dimethoxy-1,2,3,4,a,10b-hexahydrophenanthridin-6-yl)-phenyl]-ethylideneaminooxy}-acetamide]
- −log IC50, Inhibition of the PDE4 activity [1]: 8.48

SMILES: COc1cc2c(cc1OC)C1CCCCC1N=C2c1ccc(C(C)=NOCc2cccc(Cl)c2)cc1 (centres unmarked) [Compound 13]
- −log IC50, Inhibition of the PDE4 activity [1]: 8.41

SMILES: COc1cc2c(cc1OC)[C@H]1CCCC[C@H]1N=C2c1ccc(C(C)=NOCc2cccc(C(F)(F)F)c2)cc1 [Compound 14, 1-[4-((4aR,10bR)-8,9-Dimethoxy-1,2,3,4,4a,10b-hexahydrophenanthridin-6-yl}-phenyl]-ethanone O-(3-trifluoromethylbenzyl)-oxime]
- −log IC50, Inhibition of the PDE4 activity [1]: 8.43

SMILES: COc1ccccc1CON=C(C)c1ccc(C2=N[C@@H]3CCCC[C@@H]3c3cc(OC)c(OC)cc32)cc1 [Compound 15, 1-[4-((4aR,10bR)-8,9-Dimethoxy-1,2,3,4,4a,10b-hexahydrophenanthridin-6-yl}-phenyl]-ethanone O-(2-methoxy-benzyl)-oxime]
- −log IC50, Inhibition of the PDE4 activity [1]: 8.33

SMILES: COc1cc2c(cc1OC)[C@H]1CCCC[C@H]1N=C2c1ccc(C(C)=NOCc2ccc(F)cc2)cc1 [Compound 16, 1-[4-((4aR,10bR)-8,9-Dimethoxy1,2,3,4,4a,10b-hexahydrophenanthridin-6-yl}-phenyl]-ethanone O-(4-flurobenzyl)-oxime]
- −log IC50, Inhibition of the PDE4 activity [1]: 8.36

SMILES: COc1cc2c(cc1OC)[C@H]1CCCC[C@H]1N=C2c1ccc(C(C)=NOCc2cccc(F)c2)cc1 [Compound 17]
- −log IC50, Inhibition of the PDE4 activity [1]: 8.47

SMILES: COc1cc2c(cc1OC)[C@H]1CCCC[C@H]1N=C2c1ccc(C(C)=NOCc2ccccc2Cl)cc1 [Compound 18, 1-[4-((4aR,10bR)-8,9-Dimethoxy-1,2,3,4,4a,10b-hexahydrophenanthridin-6-yl}-phenyl]-ethanone O-(2-chlorobenzyl)-oxime]
- −log IC50, Inhibition of the PDE4 activity [1]: 8.73

SMILES: COc1cc2c(cc1OC)[C@H]1CCCC[C@H]1N=C2c1ccc(C(C)=NOCCOc2ccccc2)cc1 [Compound 19, 1-[4-((4aR,10bR)-8,9-Dimethoxy-1,2,3,4,4a,10b-hexahydrophenanthridin-6-yl)-phenyl]-ethanone O-(2-phenoxyethyl)-oxime]
- −log IC50, Inhibition of the PDE4 activity [1]: 8.73

SMILES: COc1cc2c(cc1OC)[C@H]1CCCC[C@H]1N=C2c1ccc(C(C)=NOCCOc2cccc(C(F)(F)F)c2)cc1 [Compound 20, 1-[4-((4aR,10bR)-8,9-Dimethoxy-1,2,3,4,4a,10b-hexahydrophenanthridin-6-yl}-phenyl]-ethanone O-[2-(3-trifluoromethylphenoxy)-ethyl]-oxime]
- −log IC50, Inhibition of the PDE4 activity [1]: 8.00

SMILES: COc1cc2c(cc1OC)[C@H]1CCCC[C@H]1N=C2c1ccc(C(C)=NOCc2ccc(Cl)cc2)cc1 [Compound 22, 1-[4-((4aR,10bR)-8,9-Dimethoxy-1,2,3,4,4a,10b-hexahydrophenanthridin-6-yl)-phenyl]-ethanone O-(4-chlorobenzyl)-oxime]
- −log IC50, Inhibition of the PDE4 activity [1]: 8.62

SMILES: COc1ccc(CON=C(C)c2ccc(C3=NC4CCCCC4c4cc(OC)c(OC)cc43)cc2)cc1 [Compound 23, 1-[4-((4aR,10bR)-8,9-Dimethoxy-1,2,3,4,4a,10b-hexahydrophenanthridin-6}-phenyl]-ethanone O-(4-methoxybenzyl)-oxime]
- −log IC50, Inhibition of the PDE4 activity [1]: 8.75

SMILES: COc1cc2c(cc1OC)[C@H]1CCCC[C@H]1N=C2c1ccc(C(C)=NOCC(=O)N2CCOCC2)cc1 [Compound 24, 2-{1-[4-((4aR,10bR)-8,9-Dimethoxy-1,2,3,4,4a,10b-hexahydrophenanthridin-6-yl)-phenyl]-ethylideneaminooxy}-1-morpholin-4-yl-ethanone]
- −log IC50, Inhibition of the PDE4 activity [1]: 8.25

SMILES: COc1cc2c(cc1OC)C1CCCCC1N=C2c1cccc(C(C)=NO)c1 (centres unmarked) [Compound 25]
- −log IC50, Inhibition of the PDE4 activity [1]: 8.33

SMILES: COc1cc2c(cc1OC)[C@H]1CCCC[C@H]1N=C2c1cccc(C(=NO)c2ccccc2)c1 [Compound 26, 1-[3-((4aR,10bR)-8,9-Dimethoxy-1,2,3,4,4a,10b-hexahydrophenanthridin-6-yl}-phenyl]-1-phenyl-methanone oxime]
- −log IC50, Inhibition of the PDE4 activity [1]: 9.27

— patent US20060189641A1, “Novel 6-phenlyphenanthridines” (priority 2003, published 2006)
